Experimental data: US12692232B2, “Indole carboxamide compound, preparation therefor and use thereof” (NANJING RUISHUNING MEDICAL TECHNOLOGY CO., LTD., priority 2021, dated 2026)
pIC50: −log10 of the molar value.

Biological target: T1, TRPC6 channel (Homo sapiens, UniProt Q9Y210)
T1 sequence (Q9Y210 1-931): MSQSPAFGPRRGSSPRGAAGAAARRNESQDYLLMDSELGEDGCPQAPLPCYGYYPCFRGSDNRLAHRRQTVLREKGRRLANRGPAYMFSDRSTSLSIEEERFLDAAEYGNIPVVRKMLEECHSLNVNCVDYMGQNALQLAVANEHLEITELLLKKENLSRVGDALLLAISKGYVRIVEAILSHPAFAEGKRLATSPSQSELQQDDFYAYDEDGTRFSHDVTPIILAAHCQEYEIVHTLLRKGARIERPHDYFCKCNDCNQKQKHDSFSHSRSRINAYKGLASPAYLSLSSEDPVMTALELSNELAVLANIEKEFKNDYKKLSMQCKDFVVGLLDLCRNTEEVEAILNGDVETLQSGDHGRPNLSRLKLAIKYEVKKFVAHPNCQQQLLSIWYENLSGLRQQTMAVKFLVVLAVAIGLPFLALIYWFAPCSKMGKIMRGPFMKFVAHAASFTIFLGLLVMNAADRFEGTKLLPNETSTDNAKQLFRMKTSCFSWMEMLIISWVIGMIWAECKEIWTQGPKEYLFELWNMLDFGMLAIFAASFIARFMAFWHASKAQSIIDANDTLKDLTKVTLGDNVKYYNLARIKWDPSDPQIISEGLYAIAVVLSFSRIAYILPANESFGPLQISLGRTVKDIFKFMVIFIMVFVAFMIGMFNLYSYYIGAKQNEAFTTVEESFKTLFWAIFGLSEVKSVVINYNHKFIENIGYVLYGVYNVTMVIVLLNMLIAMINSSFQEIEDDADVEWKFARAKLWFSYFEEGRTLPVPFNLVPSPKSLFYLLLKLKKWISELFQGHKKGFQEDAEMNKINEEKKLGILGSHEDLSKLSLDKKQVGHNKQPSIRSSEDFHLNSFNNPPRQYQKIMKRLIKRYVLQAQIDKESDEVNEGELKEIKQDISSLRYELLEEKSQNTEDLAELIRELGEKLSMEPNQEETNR
Assay: IC50 on TRPC6 channel-mediated Ca2+ entry in HEK293hTRPC6 cells
Format: cell-based
Parameters: expressed in transfected cells; host or cells: HEK293 (lentiviral transduction, puromycin selection)
Conditions: HEK293hTRPC6, OAG 80 μM, Ca2+ 2 mM
Protocol: The half maximal inhibitory concentrations (IC50) of the compounds of the present invention (as exemplified by Compound 1-1 obtained in Example 1) on TRPC6 channel-mediated Ca^2+ entry were determined using HEK293hTRPC6, a tool cell overexpressing TRPC6 protein. Methods were as follows: HEK293hTRPC6, a tool cell overexpressing TRPC6 protein, was established in the same manner as in Example 7.
Determination of the effect of compounds on changes in intracellular calcium ion concentration in HEK293hTRPC6 cells: the mother solution of the compounds was diluted to the following concentrations, 0.1 nM, 0.3 nM, 1 nM, 3 nM, 10 nM, 30 nM, 100 nM, 300 nM, 1,000 nM, and 3,000 nM, respectively, using cell culture medium. […] The crawls were placed in the center of the bath, perfused with calcium-free Tyrode's solution for 5 min and fixed on the stage of an inverted fluorescence microscope. […] Fluorescence intensity was measured at different excitation wavelengths (340 nm, 380 nm) using a TILL Ion Imaging System (TILLvisION), and the value of fluorescence intensity emitted by intracellular fluorescent probe at different excitation wavelengths was substituted into the formula: [Ca^2+]i=Kd×β×(R−Rmin)/[…]. […] Dose-effect curves were fitted using GraphPad Prism software and the IC50 was calculated.

Structure (SMILES)	pIC50
Cn1c(C(=O)NCCC(=O)O)cc2ccccc21 [3-[(1-methyl-1H-indole-2-carbonyl)amino]propionic acid, reference compound]	7.62
CC(=O)OCCCNC(=O)c1c(C=O)c2ccccc2n1C [compound 1-1, propyl 3-[(3-formyl-1-methyl-1H-indole-2-carbonyl)amino]acetate]	7.94
